How the values were obtained:
[1] = molecular target: T1, NIH/3T3 cells overexpressing FGFR3 WT-TACC3 fusion protein (Homo sapiens, UniProt P22607); test: NIH/3T3 FGFR3 WT-TACC3 cell proliferation assay; assay type: cell-based; details: 72-hr incubation, CellTiter Glo; read-out: NIH/3T3 FGFR3 WT-TACC3 CTG (IC50)
T1 construct: fused on or other part: Q9Y6A5 (Transforming acidic coiled-coil-containing protein 3)
Experimental: NIH/3T3 FGFR3 WT-TACC3 Cell Proliferation Assay
(§1) In day 1, 90 μL of cell suspension (NIH/3T3 cells overexpressing FGFR3 WT-TACC3 fusion protein) (total 30,000 cells per well in growth medium (DMEM containing 1% Glutamax, 10% FBS and 1% Pen/Strep)) was seeded in a 96-well plate and then incubated overnight at 37° C. and 5% CO2. In day 2, 10 μL of growth medium containing 10-fold stock solution of testing compound was added into cell cultures (9 dose points with 4× serial dilution, starting with 10 μM, 0.1% DMSO final). After 72-hr incubation at 37° C. and 5% CO2, in day 5 a volume of 50 μL CellTiter Glo (CTG) reagent was added into cell-containing 96-well plate and the plate was incubated at room temperature for 10 minutes before RLUs (relative light unit) were measured on a microplate reader with luminescence detection module. The RLU value was normalized to survival % and concentration-response curve was plotted using Prism to calculate IC50 (M), pIC50 (−log IC50) and HillSlope value.

[2] = molecular target: T2, human FGFR3 V555M enzyme (cytoplasmic domain carrying V555M mutation) (Homo sapiens, UniProt P22607, V555M); test: FGFR3 V555M mobility shift assay (enzymatic assay); assay type: biochemical; details: 30 μM ATP, 45 minutes at 30° C., Caliper EZ reader II
T2 construct: human FGFR3 V555M enzyme (cytoplasmic domain carrying V555M mutation, from Carna Biosciences)
T2 sequence (P22607 397-806 V555M): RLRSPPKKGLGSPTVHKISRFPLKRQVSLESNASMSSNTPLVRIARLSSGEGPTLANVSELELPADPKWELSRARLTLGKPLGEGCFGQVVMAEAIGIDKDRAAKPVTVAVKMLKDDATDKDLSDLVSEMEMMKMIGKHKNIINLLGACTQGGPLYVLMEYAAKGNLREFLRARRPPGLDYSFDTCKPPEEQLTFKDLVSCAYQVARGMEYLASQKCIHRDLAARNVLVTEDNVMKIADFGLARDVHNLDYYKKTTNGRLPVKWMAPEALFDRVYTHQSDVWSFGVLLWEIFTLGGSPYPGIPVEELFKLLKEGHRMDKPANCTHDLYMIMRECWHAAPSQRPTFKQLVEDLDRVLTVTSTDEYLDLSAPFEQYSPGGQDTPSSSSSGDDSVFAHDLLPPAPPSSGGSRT
Experimental: FGFR3 V555M Mobility Shift Assay (Enzymatic Assay)
(§2) In a final reaction volume of 25 μL, 0.04 ng/μL human FGFR3 V555M enzyme (cytoplasmic domain carrying V555M mutation, from Carna Biosciences) was incubated with 30 μM ATP, 1 μM FL-peptide 30 substrate and 250 nL of testing compound (1% DMSO final) in assay buffer (100 mM HEPES pH 7.4, 10 mM MgCl2, 0.003% Brij35, 1 mM DTT). After incubation for 45 minutes at 30° C. the reaction was stopped with 10 μL of 0.5M EDTA pH 8.0, and then 25 μL of reaction mixture was transferred to reading plate and measured on Caliper EZ reader II.

[3] = molecular target: T3, NIH/3T3 cells overexpressing FGFR3 V555M-TACC3 fusion protein (Homo sapiens, UniProt P22607, V555M, cells depend on it); test: NIH/3T3 FGFR3 V555M-TACC3 cell proliferation assay; assay type: cell-based; details: 72-hr incubation, CellTiter Glo; read-out: NIH/3T3 FGFR3 V555M-TACC3 CTG (IC50)
T3 construct: fused on or other part: Q9Y6A5 (Transforming acidic coiled-coil-containing protein 3)
T3 sequence (P22607 whole entry V555M, the tested form may be a part): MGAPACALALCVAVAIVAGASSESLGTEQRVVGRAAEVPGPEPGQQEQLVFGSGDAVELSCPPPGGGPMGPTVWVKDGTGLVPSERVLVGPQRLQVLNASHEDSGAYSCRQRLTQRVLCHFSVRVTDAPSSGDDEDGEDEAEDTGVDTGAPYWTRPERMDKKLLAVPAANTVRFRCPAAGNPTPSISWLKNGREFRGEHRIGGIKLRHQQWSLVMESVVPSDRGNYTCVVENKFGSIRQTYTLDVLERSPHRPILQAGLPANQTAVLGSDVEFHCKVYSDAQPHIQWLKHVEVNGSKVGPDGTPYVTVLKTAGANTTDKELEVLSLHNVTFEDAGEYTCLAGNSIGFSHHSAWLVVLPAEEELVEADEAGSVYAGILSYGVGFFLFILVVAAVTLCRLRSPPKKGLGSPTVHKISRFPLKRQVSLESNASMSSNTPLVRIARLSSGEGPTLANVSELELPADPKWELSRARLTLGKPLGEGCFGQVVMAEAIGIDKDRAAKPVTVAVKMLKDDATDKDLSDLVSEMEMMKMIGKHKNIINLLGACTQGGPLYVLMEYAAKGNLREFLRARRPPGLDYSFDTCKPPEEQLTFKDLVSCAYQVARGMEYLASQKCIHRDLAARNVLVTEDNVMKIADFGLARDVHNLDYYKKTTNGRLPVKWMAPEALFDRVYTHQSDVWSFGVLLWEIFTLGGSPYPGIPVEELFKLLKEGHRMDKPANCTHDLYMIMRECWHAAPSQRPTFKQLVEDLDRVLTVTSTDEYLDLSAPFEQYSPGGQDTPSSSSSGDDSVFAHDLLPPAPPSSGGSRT
Experimental: NIH/3T3 FGFR3 V555M-TACC3 Cell Proliferation Assay
as §1, with “V555M-TACC3” for “WT-TACC3”

[4] = molecular target: T4, human FGFR3 wild type enzyme (cytoplasmic domain) (Homo sapiens, UniProt P22607); test: FGFR3 wild type mobility shift assay (enzymatic assay); assay type: biochemical; details: 75 μM ATP, 50 minutes at 30° C., Caliper EZ reader II
T4 construct: human FGFR3 wild type enzyme (cytoplasmic domain, from Carna Biosciences)
T4 sequence (P22607 397-806): as the sequence (P22607 397-806 V555M) above, with M159V counted along it
Experimental: FGFR3 Wild Type Mobility Shift Assay (Enzymatic Assay)
as §2, with “FGFR3 wild type” for “FGFR3 V555M”, “(cytoplasmic domain,” for “(cytoplasmic domain carrying V555M mutation,”, “with 75” for “with 30”, “for 50” for “for 45”

T1 sequence (P22607 whole entry, change not shown, the tested form may be a part): as the sequence (P22607 whole entry V555M, the tested form may be a part) above, with M555V counted along it

GI50 [1] | IC50 [2] | GI50 [3] | IC50 [4] | Structure (SMILES)
 | 342 nM |  | 1360 nM | CC[C@H](Nc1c(-c2nc3ccc(OC)cc3[nH]2)c(=O)[nH]c2cn(C)nc12)c1ncccn1 (single isomer, unassigned) [Compound 16, (S*)-6-(6-Methoxy-1H-benzo[d]imidazol-2-yl)-2-methyl-7-((1-(pyrimidin-2-yl)propyl)amino)-2H-pyrazolo[4,3-b]pyridin-5(4, H)-one]
 | 315 nM |  | 978 nM | CCn1cc2[nH]c(=O)c(-c3nc4cc(OC)c(OC)cc4[nH]3)c(NC(C)c3cocn3)c2n1 (single isomer, unassigned) [Compound 5C, (R*)-6-(5,6-Dimethoxy-1H-benzo[d]imidazol-2-yl)-2-ethyl-7-((1-(oxazol-4-yl)ethyl)amino)-2H-pyrazolo[4,3-b]pyridin-5(4H)-one]
17.1 nM | 0.634 nM | 112 nM | 1.45 nM | CC[C@H](Nc1c(-c2nc3ccc(OCCOC)cc3[nH]2)c(=O)[nH]c2cn(C)nc12)c1ncccn1 (single isomer, unassigned) [Compound 48, (S*)-6(6-(2-methoxyethoxy)-1H-benzol-2-yl)-2-methyl-7-((1-(pyrimidin-2-yl)propyl)amino)-2H-pyrazolo[4,3-b]pyridin-5(4H)-one]
4.72 nM | 0.27 nM | 4.07 nM | 0.75 nM | COc1ccc2nc(-c3c(NC(C)c4ncccn4)c4nn(C)cc4[nH]c3=O)[nH]c2c1 (single isomer, unassigned) [Compound 1, (S*)-6-(6-Methoxy-1H-benzo[d]imidazol-2-yl)-2-methyl-7-((1-(pyrimidin-2-yl)ethyl)-amino)-2H-pyrazolo[4,3-b]pyridin-5(4H)-one]
 | 347 nM |  | 602 nM | CCC(Nc1c(-c2nc3cc(OC)c(OC)cc3[nH]2)c(=O)[nH]c2cn(CC)nc12)c1ncccn1 (single isomer, unassigned) [Compound 45, (R*)-6-(5,6-dimethoxy-1H-benzo[d]imidazol-2-yl)-2-ethyl-7-((1-(pyrimidin-2-yl)propyl)amino)-2H-pyrazolo[4,3-b]pyridin-5(4H)-one]
28.7 nM |  | 40.9 nM |  | CCOc1ccc2nc(-c3c(N[C@@H](C)c4ncccn4)c4nn(CC)cc4[nH]c3=O)[nH]c2c1 [Compound 50, (S)-6-(6-ethoxy-1H-benzo[d]imidazol-2-yl)-2-ethyl-7-((1-(pyrimidin-2-yl)ethyl)amino)-2,4-dihydro-5H-pyrazolo[4,3-b]pyridin-5-one]

The next lines start with the compound.

Structure (SMILES) | GI50 [1] | IC50 [2] | GI50 [3] | IC50 [4]
COc1cc2nc(-c3c(NC(c4ncccn4)C(C)C)c4nn(C)cc4[nH]c3=O)[nH]c2cc1OC (single isomer, unassigned) [Compound 27, (S*)-6-(5,6-dimethoxy-1H-benzo[d]imidazol-2-yl)-2-methyl-7-((2-methyl-1-(pyrimidin-2-yl)propyl)amino)-2H-pyrazolo[4,3-b]pyridin-5(4H)-one] | 40.2 nM | 1.14 nM | 31.2 nM | 4.82 nM
C[C@H](Nc1c(-c2nc3ccc(F)cc3[nH]2)c(=O)[nH]c2cn(C)nc12)c1ncccn1 [Compound 28, (S)-6-(6-Fluoro-1H-benzo[d]imidazol-2-yl)-2-methyl-7-((1-(pyrimidin-2-yl)ethyl)amino)-2H-pyrazolo[4,3-b]pyridin-5(4H)-one] | 73.8 nM |  | 13.3 nM | 7.14 nM
CC(C)C(Nc1c(-c2nc3ccc(C(=O)N(C)C)cc3[nH]2)c(=O)[nH]c2cn(C)nc12)c1ncccn1 (single isomer, unassigned) [Compound 10, (S*)—N,N-dimethyl-2-(2-methyl-7-((2-methyl-1-(pyrimidin-2-yl)propyl)amino)-5-oxo-4,5-dihydro-2H-pyrazolo[4,3-b]pyridin-6-yl)-1H-benzo[d]imidazole-6-carboxamide] | 54.2 nM | 0.673 nM | 31.9 nM | 2.57 nM
COc1cc2[nH]c(-c3c(N[C@@H](C)c4ncccn4)c4nn(C)cc4[nH]c3=O)nc2cn1 [Compound 30, (S)-6-(6-methoxy-1H-imidazo[4,5-c]pyridin-2-yl)-2-methyl-7-((1-(pyrimidin-2-yl)ethyl)amino)-2H-pyrazolo[4,3-b]pyridin-5(4H)-one] | 11.1 nM |  | 7.88 nM | 
CCn1cc2[nH]c(=O)c(-c3nc4ccc(OC)cc4[nH]3)c(N[C@H](C)c3cocn3)c2n1 (single isomer, unassigned) [Compound 34, (R*)-2-ethyl-6-(6-methoxy-H-benzo[d]imidazol-2-yl)-7-((1-(oxazol-4-yl)ethyl)amino)-2H-pyrazolo[4,3-b]pyridin-5(4H)-one] |  | 32.8 nM |  | 39.5 nM
COc1cc2nc(-c3c(N[C@@H](C)c4ccccn4)c4nn(C)cc4[nH]c3=O)[nH]c2cc1OC [Compound 56, (S)-6-(5,6-dimethoxy-1H-benzo[d]imidazol-2-yl)-2-methyl-7-((1-(pyridin-2-yl)ethyl)amino)-2H-pyrazolo[4,3-b]pyridin-5(4H)-one] | 18.4 nM |  | 13.1 nM | 
COCCOc1cc2[nH]c(-c3c(NC(c4ncccn4)C(C)C)c4nn(C)cc4[nH]c3=O)nc2cc1OC (single isomer, unassigned) [Compound 36, (S*)-6(5-methoxy-6-(2-methoxyethoxy)-1H-benzo[d]imidazol-2-yl)-2-methyl-7-((2-methyl-1-(pyrimidin-2-yl)propyl)amino)-2H-pyrazolo[4,3-b]pyridin-5(4H)-one] | 25 nM |  | 21.5 nM | 7.75 nM
CCC(Nc1c(-c2nc3cc(OC)c(OC)cc3[nH]2)c(=O)[nH]c2cn(CC)nc12)c1ncccn1 (single isomer, unassigned) [Compound 44, (S*)-6-(5,6-dimethoxy-1H-benzo[d]imidazol-2-yl)-2-ethyl-7-((1-(pyrimidin-2-yl)propyl)amino)-2H-pyrazolo[4,3-b]pyridin-5(4H)-one] | 31.7 nM |  | 51.6 nM | 
CCOc1cc2[nH]c(-c3c(N[C@@H](C)c4ncccn4)c4nn(CC)cc4[nH]c3=O)nc2cc1OC [Compound 8, (S)-6-(6-ethoxy-5-methoxy-1H-benzo[d]imidazol-2-yl)-2-ethyl-7-((1-(pyrimidin-2-yl)ethyl)amino)-2H-pyrazolo[4,3-b]pyridin-5(4H)-one] | 19.1 nM |  | 23 nM | 
COc1cnc2nc(-c3c(N[C@@H](C)c4ncccn4)c4nn(C)cc4[nH]c3=O)[nH]c2c1 [Compound 3, (S)-6-(6-methoxy-1H-imidazo[4,5-b]pyridin-2-yl)-2-methyl-7-((1-(pyrimidin-2-yl)ethyl)amino)-2H-pyrazolo[4,3-b]pyridin-5(4H)-one] | 23.4 nM |  | 32.6 nM | 
COc1cc2nc(-c3c(NC(c4ncccn4)C4CC4)c4nn(C)cc4[nH]c3=O)[nH]c2cc1OC (single isomer, unassigned) [Compound 46, (S*)-7-((cyclopropyl(pyrimidin-2-yl)methyl)amino)-6-(5,6-dimethoxy-1H-benzo[d]imidazol-2-yl)-2-methyl-2H-pyrazolo[4,3-b]pyridin-5(4H)-one] | 22.7 nM |  | 27.6 nM | 

Source: patent US20220340598A1, “PYRAZOLOPYRIDINONE COMPOUNDS” (Janssen Pharmaceutica NV, priority 2017, published 2022)
